Source: the NIST ThermoML archive (doi:10.1016/j.fluid.2008.06.004)
“And” between values parts separate entries of the source, which are not always exact repeats. Identical values can stand only once.

Experiments:
[1] = Liquid; for mass density: 298.15 K, 101.33 kPa
[2] = refractive index (Na D-line) (dimensionless); details: 298.15 K; 101.33 kPa; Liquid; Standard Abbe refractometry

CCC(C)=O [butanone]
Details | mass density [kg/m3] | refractive index
[1] | 799.62 | –
[2] | – | 1.37614

[1], Ebulliometric method (Recirculating still)
Details | vapor or sublimation pressure
308.22 K | 18.73 kPa
309.55 K | 20 kPa
310.48 K | 20.76 kPa
312.56 K | 22.74 kPa
313.8 K | 24.01 kPa
316.39 K | 26.73 kPa
318.16 K | 28.71 kPa
319.63 K | 30.72 kPa
321.2 K | 32.71 kPa
324.08 K | 36.72 kPa
326.86 K | 40.72 kPa
329.31 K | 44.73 kPa
331.49 K | 48.73 kPa
333.61 K | 52.73 kPa
335.64 K | 56.74 kPa
337.53 K | 60.73 kPa
339.37 K | 64.72 kPa
341.07 K | 68.73 kPa
342.7 K | 72.72 kPa
344.29 K | 76.74 kPa
345.74 K | 80.72 kPa
347.19 K | 84.73 kPa
348.59 K | 88.73 kPa
349.95 K | 92.74 kPa
350.49 K | 94.41 kPa
351.4 K | 97.29 kPa
352.68 K | 101.32 kPa and 101.3 kPa
354.04 K | 105.95 kPa
355.29 K | 110.24 kPa
356.39 K | 114.07 kPa
357.91 K | 119.51 kPa
359.12 K | 124.08 kPa
360.32 K | 128.72 kPa
361.22 K | 132.46 kPa
362.08 K | 135.91 kPa

CCO [ethanol]
Details | mass density [kg/m3] | refractive index
[1] | 786.47 | –
[2] | – | 1.35939

[1], Ebulliometric method (Recirculating still)
Details | vapor or sublimation pressure [kPa]
315.41 K | 20
351.46 K | 101.3

CCCO [propan-1-ol]
Details | mass density [kg/m3] | refractive index
[1] | 799.44 | –
[2] | – | 1.38305

[1]
Details | vapor or sublimation pressure [kPa]
332.67 K | 20
370.21 K | 101.3

CC(C)O [propan-2-ol]
Details | mass density [kg/m3] | refractive index
[1] | 780.75 | –
[2] | – | 1.37497

[1], Ebulliometric method (Recirculating still)
Details | vapor or sublimation pressure [kPa]
319.8 K | 20
355.4 K | 101.3
